Reference: patent publication US20010031282A1, “Process for the manufacture of a pulverous preparation” (ROCHE VITAMINS INC., priority 1996, published 2001)
Where two headings read alike, the source gives them in different places.

Legend:
[1] = Solubility of pharmaceuticals in carbon dioxide (Example 7); type: physicochemical
Procedure: (§1) A comparison of solubility's of a number of pharmaceuticals was performed in the following way:
(§2) Approximately 3-5 g of the pharmaceutical was slightly compressed in an uniaxial press to avoid the formation of a stable suspension. The so compressed powder was given in a pressure chamber with a sapphire glass (30 ml volume). The temperature of the pressure chamber was controlled by water bath. Then the pressure in the chamber was increased using the corresponding gas and equilibrated for 1-3 hours. After equilibration a defined sample (1.0 ml) was drawn under constant pressure and temperature conditions using a high pressure line with a defined volume. […] The sample container was afterwards rinsed with the same liquid to collect the residues of the substance in the sample container.
(§3) The solubility (G/V) was determined either by HPLC or gravimetrically after removing the liquid.

[2] = Solubility of pharmaceuticals in dimethylether (Example 7); type: physicochemical
Procedure: as §1, §2, §3

[3] = Volume weighted particle size distribution after spraying (Examples 8, 9); type: physicochemical; conditions: dissolved at 40° C., 200×10^5 Pa, sprayed into second autoclave
Procedure: 100 g of solid Orlistat in a container with two sinter plates was charged into an autoclave having a volume of 6 l. The autoclave was kept at a temperature of 40° C. with a water bath. Then the autoclave was filled with gas up to a pressure of 200×10^5 Pa and equilibrated for 90 min. The autoclave was connected to a second autoclave via a heated high pressure line, kept at 40° C. This second autoclave has a volume of 4 l. The dissolved Orlistat was sprayed into this second autoclave. Thereby the pressure of the first autoclave was kept constant at 200×10^5 Pa by pumping in additional gas. The resulting volume weighted particle size distribution is as follows: 100 g of solid Saquinavir in a container with two sinter plates was charged into an autoclave having a volume of 6 l. The autoclave was kept at a temperature of 40° C. with a water bath. Then the autoclave was filled with gas up to a pressure of 200×10^5 Pa and equilibrated for 90 min. The autoclave was connected to a second autoclave via a heated high pressure line, kept at 40° C. This second autoclave has a volume of 4 l. The dissolved Saquinavir was sprayed into this second autoclave. Thereby the pressure of the first autoclave was kept constant at 200×10^5 Pa by pumping in additional gas. The resulting volume weighted particle size distribution is as follows: […]

[4] = Procedure: 250 g of solid trans-apoester (Ethyl-8′-apo-β-carotene-8′oate) were charged into an autoclave. The autoclave was adjusted to a temperature of 67° C. […] 1003 g of the solution was sprayed into a spray-tower via a nozzle having a bore hole of 0.2 mm. The flow rate was 84 g/min. During the spray procedure the pressure in the autoclave was maintained at 150×10^5 Pa by supplementation with fresh dimethyl ether. The sample composition was determined gravimetrically.
[5] = 500 bar, cited from earlier work
[6] = cited from earlier work
[7] = carbon dioxide or dinitrogen monoxide, pressures up to 500 bar; cited from earlier work
[8] = Solubility / miscibility of β-carotene in dimethyl ether; type: physicochemical
Procedure: It has now been discovered that dimethyl ether is useful as a solvent for β-carotene in processes such as those described above where the material to be produced as a powder is dissolved in a solvent at high temperature and pressure, and then the pressure is reduced whereby the solubility of the dissolved material decreases to the point where it precipitates from the solution as a fine powder. […] From PCT Patent Publication WO 96/15133 it is already known that dimethyl ether is an excellent solvent at elevated temperature and pressure conditions. The solubility of β-carotene in liquid dimethyl ether is strongly temperature dependent. About 1.1 wt. % of β-carotene dissolve in liquid dimethyl ether (vapour pressure 4 bar) at 25° C. At 60° C. (vapour pressure 15 bar) already 2.7 wt. % dissolve. At higher pressures (up to 300 bar) the solubility is practically not increased in this temperature region.
Thus, a homogeneous solution of β-carotene and dimethyl ether exists at 105° C. and pressures above 140 bar.
250 g of solid trans-β-carotene were charged into an autoclave having a volume of 1 l. The autoclave was thermostatted electrically to a temperature of 105° C. 500 g of dimethyl ether (cosmetic grade) were pumped into the autoclave. Dissolution of the carotene took about 60 minutes, with shaking of the autoclave. The pressure was then 175×10^5 Pa. A sample was taken at both the top and bottom lids of the autoclave. The sample compositions were determined gravimetrically. Both samples gave a carotene content of 33 wt. % and a dimethyl ether content of 67 wt. %, i.e. a homogeneous phase of carotene and dimethyl ether was present in the autoclave.

[9] = Stability of β-carotene in liquid solutions with highly compressible gases; type: physicochemical; conditions: temperatures in the region of its melting point of 180° C.
Procedure: In analogy to the procedure described in WO 95/21688 it has been investigated whether β-carotene forms liquid solutions with the mentioned and other highly compressible substances. β-Carotene forms liquid solutions with the gases only at temperatures in the region of its melting point of 180° C.

COc1ccccc1Oc1c(NS(=O)(=O)c2ccc(C(C)(C)C)cc2)nc(-c2ncccn2)nc1OCCO [Bosentan]
solubility (CO2) ([1]; 45° C./200×10^5 Pa): <0.1 % (g/V)
solubility (CH3—O—CH3) ([2]; 45° C./200×10^5 Pa): 9.0 % (g/V)

CC1=C(/C=C/C(C)=C/C=C/C(C)=C\C(=O)O)C(C)(C)CCC1 [Isotretionin]
solubility (CO2) ([1]; 45° C./200×10^5 Pa): 0.3 % (g/V)
solubility (CH3—O—CH3) ([2]; 45° C./200×10^5 Pa): 6.0 % (g/V)

O=C(NCCN1CCOCC1)c1ccc(Cl)cc1 [Moclobemide]
solubility (CO2) ([1]; 45° C./200×10^5 Pa): 0.35 % (g/V)
solubility (CH3—O—CH3) ([2]; 45° C./200×10^5 Pa): 3.7 % (g/V)

CCCCCCCCCCC[C@@H](C[C@@H]1OC(=O)[C@H]1CCCCCC)OC(=O)[C@H](CC(C)C)NC=O [Orlistat]
solubility (CO2) ([1]; 30° C./100×10^5 Pa): 0.6 % (g/V)
solubility (CH3—O—CH3) ([2]; 20° C./4.5×10^5 Pa): 17.8 % (g/V)
particle size, 10% of the particles (volume weighted) [3]: ≦0.40 μm
particle size, 50% of the particles (volume weighted) [3]: ≦1.02 μm
particle size, 90% of the particles (volume weighted) [3]: ≦2.43 μm

CC(C)(C)NC(=O)[C@@H]1C[C@@H]2CCCC[C@@H]2CN1C[C@@H](O)[C@H](Cc1ccccc1)NC(=O)[C@H](CC(N)=O)NC(=O)c1ccc2ccccc2n1 [Saquinavir]
solubility (CO2) ([1]; 45° C./200×10^5 Pa): <0.1 % (g/V)
solubility (CH3—O—CH3) ([2]; 25° C./100×10^5 Pa): >10 % (g/V)
particle size, 10% of the particles (volume weighted) [3]: ≦0.4 μm
particle size, 50% of the particles (volume weighted) [3]: ≦0.9 μm
particle size, 90% of the particles (volume weighted) [3]: ≦1.8 μm

CCOC(=O)/C(C)=C/C=C/C(C)=C/C=C/C=C(C)/C=C/C=C(C)/C=C/C1=C(C)CCCC1(C)C [apoester, Ethyl-8′-apo-β-carotene-8′oate]
content of the apoester in the sprayed dimethyl ether solution (gravimetric) ([4]; 67° C., 150×10^5 Pa, equilibrated 30 minutes): 10 wt %
particle size ([4]; Example 6, sprayed from dimethyl ether, 67° C., 150×10^5 Pa, nozzle 0.2 mm): 9 μm
mean particle size ([4]; Example 10, powder with gelatin/sucrose matrix, starch catch process): 0.23 μm

CC1=C(/C=C/C(C)=C/C=C/C(C)=C/C=C/C=C(C)/C=C/C=C(C)/C=C/C2=C(C)CCCC2(C)C)C(C)(C)CCC1 [β-carotene]
solubility in carbon dioxide ([5]; 35° C.): 0.00049 wt. %
solubility in carbon dioxide ([5]; 55° C.): 0.0016 wt. %
dissolution in liquid sulphur dioxide ([6]; 15° C.): 0.59 wt. %
highest concentration in supercritical fluids (ethylene) ([6]; ethylene, 55° C., 500 bar): 0.035 wt. %
concentration in the solvents which are liquid at room temperature ([6]; liquid solvents except CS2): below 1 wt. %
solubility in CS2 ([6]; room temperature): 3.5 wt. %
β-carotene concentration in supercritical gases [7]: 0.01 wt. %
solubility in liquid dimethyl ether ([8]; 25° C., vapour pressure 4 bar): About 1.1 wt. %
solubility in liquid dimethyl ether ([8]; 60° C., vapour pressure 15 bar): 2.7 wt. %
carotene content of the homogeneous dimethyl ether phase (gravimetric) ([8]; 105° C., 175×10^5 Pa, Example 1): 33 wt. %
miscibility with dimethyl ether ([8]; 105° C., pressures above 140 bar): miscible without limitation in any ratio
stability in liquid solution with the gases [9]: isomerizes or decomposes after a very short time
